Experiments:
Assay in all cases: relative viability (nuclei count vs DMSO), 5 days (fraction); higher = more cells survive
LCLC-97TM1 = test system: LCLC-97TM1
Outline: (§1)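 One day after seeding in 1536-well plates, lung cancer cell lines were dosed by pin tool. Dosing was either single-drug or a fixed anchor-drug dose plus five library-drug doses (not always all listed) in √10 steps. After 5 days, nuclei were stained in one fix-and-stain step and counted on 4× images, and relative viability is the nuclei count of treated wells over that of vehicle wells, given as the median of duplicate plates.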

NCI-H1793 = test system: NCI-H1793
Outline: as §1

SW 1573 = test system: SW 1573
Outline: as §1

PC-3 [JPC-3] = test system: PC-3 [JPC-3]
Outline: as §1

NCI-H2347 = test system: NCI-H2347
Outline: as §1

NCI-H520 = test system: NCI-H520
Outline: as §1

NCI-H1650 = test system: NCI-H1650
Outline: as §1

NCI-H2228 = test system: NCI-H2228
Outline: as §1

NCI-H1915 = test system: NCI-H1915
Outline: as §1

RERF-LC-KJ = test system: RERF-LC-KJ
Outline: as §1

LOU-NH91 = test system: LOU-NH91
Outline: as §1

BEN = test system: BEN
Outline: as §1

NCI-H1666 = test system: NCI-H1666
Outline: as §1

NCI-H1993 = test system: NCI-H1993
Outline: as §1

A-427 = test system: A-427
Outline: as §1

NCI-H460 = test system: NCI-H460
Outline: as §1

NCI-H23 = test system: NCI-H23
Outline: as §1

EKVX = test system: EKVX
Outline: as §1

LC-2-ad = test system: LC-2-ad
Outline: as §1

LU99A = test system: LU99A
Outline: as §1

NCI-H838 = test system: NCI-H838
Outline: as §1

NCI-H650 = test system: NCI-H650
Outline: as §1

NCI-H1355 = test system: NCI-H1355
Outline: as §1

Structure (SMILES): Cc1cnc(-c2cnc(NCCNc3ccc(C#N)cn3)nc2-c2ccc(Cl)cc2Cl)[nH]1 + O=C(c1cc(Cc2n[nH]c(=O)c3ccccc23)ccc1F)N1CCN(C(=O)C2CC2)CC1 [Olaparib] (partner 8 µM)
- relative viability (LCLC-97TM1; first compound 0.08 µM): 0.379
- relative viability (LCLC-97TM1; first compound 0.253 µM): 0.36
- relative viability (LCLC-97TM1; first compound 0.8 µM): 0.417
- relative viability (LCLC-97TM1; first compound 2.53 µM): 0.316
- relative viability (NCI-H1793; first compound 0.08 µM): 1.01
- relative viability (NCI-H1793; first compound 0.253 µM): 0.755
- relative viability (NCI-H1793; first compound 0.8 µM): 0.957
- relative viability (NCI-H1793; first compound 2.53 µM): 0.867
- relative viability (SW 1573; first compound 0.08 µM): 0.532
- relative viability (SW 1573; first compound 0.253 µM): 0.406
- relative viability (SW 1573; first compound 0.8 µM): 0.494
- relative viability (SW 1573; first compound 2.53 µM): 0.233
- relative viability (PC-3 [JPC-3]; first compound 0.08 µM): 1.1
- relative viability (PC-3 [JPC-3]; first compound 0.253 µM): 1.08
- relative viability (PC-3 [JPC-3]; first compound 0.8 µM): 1.09
- relative viability (PC-3 [JPC-3]; first compound 2.53 µM): 1.04
- relative viability (NCI-H2347; first compound 0.08 µM): 0.623
- relative viability (NCI-H2347; first compound 0.253 µM): 0.495
- relative viability (NCI-H2347; first compound 0.8 µM): 0.663
- relative viability (NCI-H2347; first compound 2.53 µM): 0.587
- relative viability (NCI-H520; first compound 0.08 µM): 0.366
- relative viability (NCI-H520; first compound 0.253 µM): 0.3
- relative viability (NCI-H520; first compound 0.8 µM): 0.354
- relative viability (NCI-H520; first compound 2.53 µM): 0.311
- relative viability (NCI-H1650; first compound 0.08 µM): 0.724
- relative viability (NCI-H1650; first compound 0.253 µM): 0.737
- relative viability (NCI-H1650; first compound 0.8 µM): 0.808
- relative viability (NCI-H1650; first compound 2.53 µM): 0.868
- relative viability (NCI-H2228; first compound 0.08 µM): 0.56
- relative viability (NCI-H2228; first compound 0.253 µM): 0.332
- relative viability (NCI-H2228; first compound 0.8 µM): 0.732
- relative viability (NCI-H2228; first compound 2.53 µM): 0.419
- relative viability (NCI-H1915; first compound 0.08 µM): 0.253
- relative viability (NCI-H1915; first compound 0.8 µM): 0.264
- relative viability (NCI-H1915; first compound 2.53 µM): 0.239
- relative viability (RERF-LC-KJ; first compound 0.08 µM): 0.902
- relative viability (RERF-LC-KJ; first compound 0.253 µM): 0.65
- relative viability (RERF-LC-KJ; first compound 0.8 µM): 0.839
- relative viability (RERF-LC-KJ; first compound 2.53 µM): 0.858
- relative viability (LOU-NH91; first compound 0.08 µM): 0.94
- relative viability (LOU-NH91; first compound 0.253 µM): 0.868
- relative viability (LOU-NH91; first compound 0.8 µM): 0.962
- relative viability (LOU-NH91; first compound 2.53 µM): 0.877
- relative viability (BEN; first compound 0.08 µM): 1.17
- relative viability (BEN; first compound 0.253 µM): 1.04
- relative viability (BEN; first compound 0.8 µM): 0.973
- relative viability (BEN; first compound 2.53 µM): 0.978
- relative viability (NCI-H1666; first compound 0.08 µM): 0.775
- relative viability (NCI-H1666; first compound 0.253 µM): 0.732
- relative viability (NCI-H1666; first compound 0.8 µM): 0.765
- relative viability (NCI-H1666; first compound 2.53 µM): 0.781
- relative viability (NCI-H1993; first compound 0.08 µM): 1.1
- relative viability (NCI-H1993; first compound 0.253 µM): 0.855
- relative viability (NCI-H1993; first compound 0.8 µM): 1.13
- relative viability (NCI-H1993; first compound 2.53 µM): 1.2
- relative viability (A-427; first compound 0.08 µM): 0.759
- relative viability (A-427; first compound 0.253 µM): 0.711
- relative viability (A-427; first compound 0.8 µM): 0.822
- relative viability (A-427; first compound 2.53 µM): 0.743
- relative viability (NCI-H460; first compound 0.08 µM): 0.323
- relative viability (NCI-H460; first compound 0.8 µM): 0.342
- relative viability (NCI-H460; first compound 2.53 µM): 0.402
- relative viability (NCI-H23; first compound 0.08 µM): 0.316
- relative viability (NCI-H23; first compound 0.253 µM): 0.297
- relative viability (NCI-H23; first compound 0.8 µM): 0.303
- relative viability (NCI-H23; first compound 2.53 µM): 0.367
- relative viability (EKVX; first compound 0.08 µM): 0.939
- relative viability (EKVX; first compound 0.253 µM): 0.814
- relative viability (EKVX; first compound 0.8 µM): 0.715
- relative viability (EKVX; first compound 2.53 µM): 0.85
- relative viability (LC-2-ad; first compound 0.08 µM): 0.657
- relative viability (LC-2-ad; first compound 0.8 µM): 0.73
- relative viability (LC-2-ad; first compound 2.53 µM): 0.645
- relative viability (LU99A; first compound 0.08 µM): 0.254
- relative viability (LU99A; first compound 0.253 µM): 0.256
- relative viability (LU99A; first compound 0.8 µM): 0.231
- relative viability (LU99A; first compound 2.53 µM): 0.253
- relative viability (NCI-H838; first compound 0.08 µM): 0.756
- relative viability (NCI-H838; first compound 0.253 µM): 0.768
- relative viability (NCI-H838; first compound 0.8 µM): 0.796
- relative viability (NCI-H838; first compound 2.53 µM): 0.75
- relative viability (NCI-H650; first compound 0.08 µM): 0.41
- relative viability (NCI-H650; first compound 0.253 µM): 0.36
- relative viability (NCI-H650; first compound 0.8 µM): 0.479
- relative viability (NCI-H650; first compound 2.53 µM): 0.393
- relative viability (NCI-H1355; first compound 0.08 µM): 0.793
- relative viability (NCI-H1355; first compound 0.253 µM): 0.648
- relative viability (NCI-H1355; first compound 0.8 µM): 0.749
- relative viability (NCI-H1355; first compound 2.53 µM): 0.716
